Results as given in ChEMBL document CHEMBL4145491, “Bysspectin A, an unusual octaketide dimer and the precursor derivatives from the endophytic fungus Byssochlamys spectabilis IMM0002 and their biological activities” (Eur J Med Chem, 2018).
In brackets after ≈: the same amount, converted by molar mass. Activity calls are given as the source filed them. The rule behind the calls is not given here.

Columns and labels:
Staphylococcus aureus [1] = assay: Antibacterial activity against Staphylococcus aureus ATCC 25923 after 24 hrs by broth microdilution method; format: functional; settings: ATCC 25923, 24 h
Escherichia coli [2] = assay: Antibacterial activity against Escherichia coli ATCC 25922 after 24 hrs by broth microdilution method; format: functional; settings: ATCC 25922, 24 h
[3] = test system: Staphylococcus epidermidis; assay: Antibacterial activity against Staphylococcus epidermidis ATCC 12228 after 24 hrs by broth microdilution method; format: functional; settings: ATCC 12228, 24 h
[4] = test system: Mycolicibacterium smegmatis; assay: Antibacterial activity against Mycobacterium smegmatis MC2 155 ATCC […] after 24 hrs by broth microdilution method; format: functional
Liver carboxylesterase 1 = molecular target: T1, Liver carboxylesterase 1 (Homo sapiens, UniProt P23141); assay: Inhibition of CE1 in human liver microsomes using D-Luciferin methyl ester as substrate preincubated for 10 mins followed by substrate addition measured after 10 mins by luminescence assay
T1 sequence (P23141 whole entry): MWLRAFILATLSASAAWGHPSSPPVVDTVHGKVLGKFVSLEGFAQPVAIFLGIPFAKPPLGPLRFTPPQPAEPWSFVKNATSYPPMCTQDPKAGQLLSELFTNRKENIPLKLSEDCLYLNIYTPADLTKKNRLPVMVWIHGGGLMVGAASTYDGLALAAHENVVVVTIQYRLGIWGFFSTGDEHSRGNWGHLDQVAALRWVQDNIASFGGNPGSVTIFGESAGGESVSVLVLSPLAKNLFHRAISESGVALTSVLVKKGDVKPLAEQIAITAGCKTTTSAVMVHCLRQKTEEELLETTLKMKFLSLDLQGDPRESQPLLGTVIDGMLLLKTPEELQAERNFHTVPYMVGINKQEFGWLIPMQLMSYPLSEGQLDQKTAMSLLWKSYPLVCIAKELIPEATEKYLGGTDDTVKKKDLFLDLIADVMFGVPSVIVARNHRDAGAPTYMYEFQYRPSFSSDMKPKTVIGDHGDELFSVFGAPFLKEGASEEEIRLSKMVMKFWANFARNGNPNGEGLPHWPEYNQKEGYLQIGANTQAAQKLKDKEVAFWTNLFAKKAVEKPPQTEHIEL

Cocaine esterase [5] = molecular target: T2, Cocaine esterase (Homo sapiens, UniProt O00748); assay: Inhibition of CE2 in human liver microsomes using fluorescein diacetate as substrate preincubated for 10 mins followed by substrate addition measured after 20 mins by […] assay
T2 sequence (O00748 whole entry): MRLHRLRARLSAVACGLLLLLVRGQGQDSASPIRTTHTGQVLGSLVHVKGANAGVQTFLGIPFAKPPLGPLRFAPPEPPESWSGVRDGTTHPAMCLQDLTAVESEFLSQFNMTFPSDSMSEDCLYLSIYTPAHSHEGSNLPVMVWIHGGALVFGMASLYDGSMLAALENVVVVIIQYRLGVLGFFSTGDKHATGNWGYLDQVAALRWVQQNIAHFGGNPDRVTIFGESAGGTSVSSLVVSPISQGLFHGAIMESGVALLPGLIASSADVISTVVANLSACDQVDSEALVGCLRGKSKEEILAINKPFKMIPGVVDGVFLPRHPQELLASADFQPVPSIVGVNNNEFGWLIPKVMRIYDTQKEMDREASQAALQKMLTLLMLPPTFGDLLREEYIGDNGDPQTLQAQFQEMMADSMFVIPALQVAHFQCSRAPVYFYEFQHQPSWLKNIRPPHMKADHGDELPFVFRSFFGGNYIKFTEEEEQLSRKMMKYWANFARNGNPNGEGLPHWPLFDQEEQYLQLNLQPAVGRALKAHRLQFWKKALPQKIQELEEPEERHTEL

Homo sapiens = organism: Homo sapiens; assay: Selectivity ratio of IC50 for inhibition of CE1 in human liver microsomes to IC50 for inhibition of CE2 in human liver microsomes
[6] = molecular target: T3, CE2 (carboxylesterase 2; cocaine esterase) (Homo sapiens, UniProt O00748); assay: Potency index, ratio of loperamide IC50 to compound IC50 for inhibition of CE2 in human liver microsomes; settings: read-out: Ratio IC50
T3 sequence (O00748 whole entry): T2 sequence (O00748 whole entry)

Cocaine esterase [7] = molecular target: T2, Cocaine esterase; assay: Reversible inhibition of CE2 in human liver microsomes up to 120 uM using fluorescein diacetate as substrate preincubated for 10 mins followed by substrate addition measured after 20 mins by […] assay
Cocaine esterase [8] = molecular target: T2, Cocaine esterase; assay: Competitive inhibition of CE2 in human liver microsomes using fluorescein diacetate as substrate preincubated for 10 mins followed by substrate addition measured after 20 mins by Lineweaver-Burk plot analysis
Peritoneal macrophage = assay: Anti-inflammatory activity in C57BL6J mouse peritoneal macrophages assessed as inhibition of LPS-induced TNF-alpha secretion at 10 uM after 24 hrs; format: functional, cell-based
[9] = molecular target: T4, Tyrosine-protein phosphatase non-receptor type 1 (Homo sapiens) (UniProt P18031); assay: Inhibition of recombinant human GST-tagged PTP1B at 10 uM using p-NPP as substrate after 10 mins by spectrophotometric method
T4 sequence (whole entry): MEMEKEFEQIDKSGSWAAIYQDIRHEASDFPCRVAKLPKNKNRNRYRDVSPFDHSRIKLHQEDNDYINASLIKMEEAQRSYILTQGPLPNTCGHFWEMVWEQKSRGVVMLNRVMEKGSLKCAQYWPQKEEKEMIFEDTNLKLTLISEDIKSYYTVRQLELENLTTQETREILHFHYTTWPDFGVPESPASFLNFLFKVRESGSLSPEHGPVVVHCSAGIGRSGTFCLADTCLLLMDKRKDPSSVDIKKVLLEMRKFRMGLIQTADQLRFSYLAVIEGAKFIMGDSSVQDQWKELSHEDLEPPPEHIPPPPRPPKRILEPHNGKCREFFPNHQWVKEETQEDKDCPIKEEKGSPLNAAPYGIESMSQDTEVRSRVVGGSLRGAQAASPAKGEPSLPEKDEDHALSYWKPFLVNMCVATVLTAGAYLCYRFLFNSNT

HepG2 = assay: Protection against acetaminophen-induced cell injury in human HepG2 cells at 10 uM after 24 hrs by MTT assay; format: functional, cell-based
HCT-8 = assay: Cytotoxicity against human HCT8 cells after 24 hrs by MTT assay; format: functional, cell-based
A2780 = assay: Cytotoxicity against human A2780 cells after 24 hrs by MTT assay; format: functional, cell-based
BGC-823 = assay: Cytotoxicity against human BGC823 cells after 24 hrs by MTT assay; format: functional, cell-based
Bel-7402 = assay: Cytotoxicity against human Bel7402 cells after 24 hrs by MTT assay; format: functional, cell-based
A549 = assay: Cytotoxicity against human A549 cells after 24 hrs by MTT assay; format: functional, cell-based
Escherichia coli [10] = assay: Antibacterial activity against Escherichia coli ATCC 25922 at 30 ug/disk; format: functional
Staphylococcus aureus [11] = assay: Antibacterial activity against Staphylococcus aureus ATCC 25923 at 30 ug/disk; format: functional
Candida albicans = assay: Anti-fungal activity against Candida albicans at 30 ug/disk; format: functional

Structure (SMILES) | MIC (Staphylococcus aureus [1]) [mg/L] | MIC (Escherichia coli [2]) [mg/L] | IC50 (Liver carboxylesterase 1) [µM] | inhibition (Peritoneal macrophage) | inhibition [9] | Activity (HepG2) | Activity (HCT-8) | Activity (A2780) | Activity (BGC-823) | Activity (Bel-7402) | Activity (A549) | other results
C[C@H]1COc2c(N3CCN(C)CC3)c(F)cc3c(=O)c(C(=O)O)cn1c23.C[C@H]1COc2c(N3CCN(C)CC3)c(F)cc3c(=O)c(C(=O)O)cn1c23.O [LEVOFLOXACIN] | 0.12 | – | – | – | – | – | – | – | – | – | – | –
CCCCCCCCC(=O)c1cccc(O)c1-c1cc2c(C(=O)CCCCCCCC)cccc2o1 | > 128 | > 128 | > 100 | inactive | inactive | inactive | inactive | inactive | inactive | inactive | inactive | MIC [3]: > 128 mg/L; MIC [4]: > 128 mg/L; IC50 (Cocaine esterase [5]): 2.01 µM; Ratio IC50 (Homo sapiens): > 49.8; selectivity ratio [6]: 2; inhibition (INH) (Cocaine esterase [7]): Active; Ki (Cocaine esterase [8]): 2.34 µM
O=[N+]([O-])c1ccc(OP(=O)(O)Oc2ccc([N+](=O)[O-])cc2)cc1 | – | – | 0.21 | – | – | – | – | – | – | – | – | –
C[C@@H]1[C@H](O)[C@@H](C)/C=C/C=C/C=C/C=C/C=C/C=C/C=C/[C@H](O[C@@H]2O[C@H](C)[C@@H](O)[C@H](N)[C@@H]2O)C[C@@H]2O[C@](O)(C[C@@H](O)C[C@@H](O)[C@H](O)CC[C@@H](O)C[C@@H](O)CC(=O)O[C@H]1C)C[C@H](O)[C@H]2C(=O)O [AMPHOTERICIN B] | – | – | – | – | – | – | – | – | – | – | – | diameter of the inhibition zone (DIZ) (Escherichia coli [10]): inactive; diameter of the inhibition zone (DIZ) (Staphylococcus aureus [11]): inactive; zone of inhibition at 30 µg/disc (Candida albicans; read-out: DIZ): > 20 mm
CCCCCCC/C=C1\OC(=O)c2c(O)cccc21 | > 128 | > 128 | – | inactive | inactive | inactive | inactive | inactive | inactive | inactive | inactive | MIC [3]: > 128 mg/L; MIC [4]: > 128 mg/L
CC1(C)S[C@@H]2[C@H](NC(=O)[C@H](N)c3ccccc3)C(=O)N2[C@H]1C(=O)O [AMPICILLIN] | – | – | – | – | – | – | – | – | – | – | – | zone of inhibition at 30 µg/disc (Escherichia coli [10]; read-out: DIZ): 16 to 20 mm; zone of inhibition at 30 µg/disc (Staphylococcus aureus [11]; read-out: DIZ): > 20 mm; diameter of the inhibition zone (DIZ) (Candida albicans): inactive
CCCCCCCC[C@@H]1OC(=O)c2c(O)cccc21 [PAECILOCIN A] | – | – | > 100 | inactive | inactive | inactive | inactive | inactive | inactive | inactive | inactive | IC50 (Cocaine esterase [5]): 23.3 µM; Ratio IC50 (Homo sapiens): > 4.29
CCCCCCCCCc1cccc(O)c1C=O | 64 (≈ 258 µM) | 32 (≈ 129 µM) | – | inactive | inactive | inactive | inactive | inactive | inactive | inactive | inactive | –
